From US12370183B2, “Compositions and methods for treating malaria” (Rutgers, The State University of New Jersey, priority 2020, dated 2025) come the findings set out here.

SMILES strings stand for the structures. Read-outs that look alike come from different tables or passages of the source.

For data set [1], the system named is Wild-Type attB Pf Dd2. The experiment in a line: P. falciparum (Dd2 strain) asexual blood stage assay, wild-type attB. The class given is cell-based. The following applies: Plasmodium falciparum. How it is done:
(§1) Assays using human blood cells infected with Plasmodium falciparum: (Pf) parasites, both wild-type strains as well as mutant drug-resistant strains, were performed as described below. Wild-type strains used were aatB Pf (Dd2 strain) and Pf (Dd2 strain). Mutant strains used were proguanil resistant attb Pf (Dd2 strain), dihydroorotate dehydrogenase (DHODH) deficient aatB Pf (Dd2 strain), and DHODH deficient and proguanil resistant Pf (Dd2 strain).
(§2) 2008 Jul. 1; 105(26):9059-64.
(§3) Parasitemia was estimated by blood smear Giemsa stain and visual inspection under the microscopic.
(§4) The screening plate was prepared by centrifuging for parasite culture for 5 min at 800×g at RT (low brake) and removing supernatant. A parasite suspension was prepared with 0.3% parasitemia and 4% hematocrit in screening medium (SM). The suspension was gassed with a gas mixture of 1% oxygen, 3% carbon dioxide, 96% nitrogen and stored at 37° C. for until ready to use. 50 nl of 1 mM compound in DMSO was prespotted into 1536 well plates (final drug conc. of 12.5 μM, final DMSO conc. of 0.625%) with the acoustic dispenser ATS. Controls were Artemisinin, Chloroquine, and DMSO. 8 μl of SM was dispensed into 1,536-well, black, clear-bottom plates (Greiner) using the MultiFlo™ Microplate dispenser (BioTek) (final parasitemia of 0.3% and 2.5% hematocrit in SM). The plates were incubated at 37° C. for 72 h with water-soaked tissue in a closed ziploc bag gassed with 1% oxygen, 3% carbon dioxide, 96% nitrogen.
(§5) 2 μl of detection reagent mixture (10×SYBR Green I (Invitrogen) in Lysis buffer (20 mM Tris/HCl, 5 mM EDTA, 0.16% Saponin wt/vol, 1.6% Triton X vol/vol) was added. Assay plates were read from the bottom by using the 2104 EnVision® Multilabel Reader (PerkinElmer) (485 nm excitation, 530 nm emission). The results are presented in Table 5 below.

Data set [2] deals with DHODH deficient Pf Dd2 mutant. The experiment in a line: P. falciparum (Dd2 strain) asexual blood stage assay, DHODH deficient mutant. The class given is cell-based, Plasmodium falciparum. The following applies: for IC50: Plasmodium falciparum, DD2, 72 h, read-out: DHODH deficient Pf Dd2 mutant IC50 (uM). How it is done: as §1, §2, §3, §4, §5
The test system of data set [3] is DHODH deficient + Proguanil resistant Pf Dd2. Nature of the data set: P. falciparum (Dd2 strain) asexual blood stage assay, DHODH deficient + proguanil resistant. The class given is cell-based. Particulars: Plasmodium falciparum, DD2, 72 h, read-out: DHODH deficient + Proguanil resistant Pf Dd2 IC50 (uM). How it is done:
as §1, §2, §3
(§6) The screening plate was prepared by centrifuging for parasite culture for 5 min at 800×g at RT (low brake) and removing supernatant. A parasite suspension was prepared with 0.3% parasitemia and 4% hematocrit in screening medium (SM). The suspension was gassed with a gas mixture of 1% oxygen, 3% carbon dioxide, 96% nitrogen and stored at 37° C. for until ready to use. […]
as §5

Data set [4] has as its system Pf Dd2. The experiment in a line: P. falciparum (Dd2 strain) asexual blood stage assay, Pf Dd2. The class given is cell-based. Particulars: Plasmodium falciparum, DD2, 72 h, read-out: Pf Dd2 IC50 (uM). As to the method:
as §1, §2, §3, §6, §5

For data set [5], the system named is HepG2-A16-CD81EGFP cells. Nature of the data set: HepG2 cytotoxicity bioluminescence assay (CellTiter-Glo). The class given is cell-based, human. The following applies: for concentration below which no toxicity was seen: HepG2-A16-CD81EGFP, 48 h, CellTiter-Glo. As to the method: Compounds 66 and 177 were tested for viability of liver schizonts of the murine Plasmodium berghei species transformed with Luciferase by using the following assay adapted and modified from S. Swann et al. (2016) High-Throughput Luciferase-Based Assay for the Discovery of Therapeutics That Prevent Malaria. ACS Infectious Diseases 2: 4. 281-293 (2016), but with the removal of the infection methods. The CellTiter-Glo® ° (Promega Corp., Madison WI) is a method to determine the number of viable cells in culture based on quantitation of the ATP present, which signals the presence of metabolically active cells.
HepG2-A16-CD81EGFP cells were stably transformed to express a GFP-CD81 fusion protein (S. Yalaoui et al., Hepatocyte permissiveness to Plasmodium infection is conveyed by a short and structurally conserved region of the CD81 large extracellular domain. PLoS Pathog. 4, e1000010 (2008); O. Silvie et al, Hepatocyte CD81 is required for Plasmodium falciparum and Plasmodium yoelii sporozoite infectivity. Nat. Med. 9, 93 (2003)). The transformed HepG2-A16-CD81EGFP cells were cultured at 37° C. in 5% CO2 in DMEM (Invitrogen, Carlsbad, USA) supplemented with 10% FCS, 0.29 mg/ml glutamine, 100 units penicillin and 100 μg/ml streptomycin.
[…] HepG2-A16-CD81EGFP cells in 5 μl of medium (2×10^5 cells/ml, 5% FBS, 5× Pen/Strep/Glu) were seeded in 1536-well plates (Greiner BioOne white solid bottom custom GNF mold) 20-26 hours prior to the actual infection. 24 hours prior to infection, 50 nl of compound in DMSO (0.5% final DMSO concentration per well) was transferred with acoustic transfer machine (ATS) into the assay plates (10 μM-50 μM final concentration). Puromycin (25 μM) and 0.5% DMSO were used as positive and negative controls, respectively.
5 μl of the HepG2 screening media were dispensed into each well of the 1536 plate format using the BioTek MultiFlo FX Multi-Mode Cell Dispenser and a 5 μl BioTek Liquid Handling MicroFlo cassette. This step was to maintain equal concentrations of compounds with the Pb-Luc infected plates that were performed in parallel with this assay (P. berghei-Luciferase Liver Stage Bioluminescence Assay). After incubation at 37° C. for 48 hours, the cell viability was quantified by bioluminescence measurement. […] Puromycin and naive wells were used as controls on each plate. The compounds were screened in a 12 point serial dilution to determine their IC50 values.
Media was removed by spinning the inverted plates at 150 RCF for 1 minute. CellTiter-Glo® reagent (Promega Corp., Madison WI) was prepared following manufacturer instructions and diluted with DI H2O 1:1 (final solution is 50% CellTiterGlo® reagent in DI H2O). […] Immediately after addition of the CellTiter-Glo® reagent, the plates were read by the Envision Multilabel Reader (PerkinElmer).

[6] abbreviates: DD2, 72 h, read-out: Wild-Type attB Pf Dd2 IC50 (uM).
Setting [7] is: DD2, read-out: IC50 against wild-type attB Pf.

As usually defined, the IC50 is the concentration needed to halve the response being measured. Turning to `O=C1c2c3c(nc4ccccc24)CCN(Cc2ccccc2)C3N1c1ccc(F)c(F)c1` (stereo not drawn) [Compound 177, 3-Benzyl-2-(3,4-difluorophenyl)-2a,3,4,5-tetrahydrobenzo[b]pyrrolo[4,3,2-de][1,6]naphthyridin-1(2H)-one], the half-inhibitory concentration (IC50) is 0.00895 µM in data set [1] (setting [6]); 0.00895 µM in data set [1] (setting [7]); 0.006 µM in data set [2]; 0.0103 µM in data set [3]; 0.0063 µM in data set [4]. In data set [2] (in words), the “potency against a dihydroorotate dehydrogenase (DHODH) deficient mutant” value is given as “undiminished potency”. In addition, in data set [5], the “cell-based toxicity, in words” value is recorded as “acceptable levels of cell-based toxicity”. Moreover, the “concentration below which no toxicity was seen” value in data set [5] is at least 12.5 µM.
Regarding `O=C(Nc1ccc(F)c(F)c1)c1c2c(nc3ccccc13)CCN(Cc1ccccc1)C2` [Compound 66, 2-Benzyl-N-(3,4-difluorophenyl)-1,2,3,4-tetrahydrobenzo[b][1,6]naphthyridine-10-carboxamide], the IC50 in data set [1] (setting [6]) was 0.0565 µM; in data set [1] (setting [7]), 0.0556 µM; in data set [2], 0.0301 µM; in data set [3], 0.028 µM; in data set [4], 0.302 µM. Besides, in data set [5], the “cell-based toxicity, in words” value is “acceptable levels of cell-based toxicity”. The “concentration below which no toxicity was seen” value in data set [5] was at least 50 µM.
